Results on 78 compounds are retold here after ChEMBL document CHEMBL5223107 (Bioorg Med Chem Lett, 2022).

In one assay the target is T1, Androgen receptor (Homo sapiens, UniProt P10275).
T1 sequence (P10275 whole entry): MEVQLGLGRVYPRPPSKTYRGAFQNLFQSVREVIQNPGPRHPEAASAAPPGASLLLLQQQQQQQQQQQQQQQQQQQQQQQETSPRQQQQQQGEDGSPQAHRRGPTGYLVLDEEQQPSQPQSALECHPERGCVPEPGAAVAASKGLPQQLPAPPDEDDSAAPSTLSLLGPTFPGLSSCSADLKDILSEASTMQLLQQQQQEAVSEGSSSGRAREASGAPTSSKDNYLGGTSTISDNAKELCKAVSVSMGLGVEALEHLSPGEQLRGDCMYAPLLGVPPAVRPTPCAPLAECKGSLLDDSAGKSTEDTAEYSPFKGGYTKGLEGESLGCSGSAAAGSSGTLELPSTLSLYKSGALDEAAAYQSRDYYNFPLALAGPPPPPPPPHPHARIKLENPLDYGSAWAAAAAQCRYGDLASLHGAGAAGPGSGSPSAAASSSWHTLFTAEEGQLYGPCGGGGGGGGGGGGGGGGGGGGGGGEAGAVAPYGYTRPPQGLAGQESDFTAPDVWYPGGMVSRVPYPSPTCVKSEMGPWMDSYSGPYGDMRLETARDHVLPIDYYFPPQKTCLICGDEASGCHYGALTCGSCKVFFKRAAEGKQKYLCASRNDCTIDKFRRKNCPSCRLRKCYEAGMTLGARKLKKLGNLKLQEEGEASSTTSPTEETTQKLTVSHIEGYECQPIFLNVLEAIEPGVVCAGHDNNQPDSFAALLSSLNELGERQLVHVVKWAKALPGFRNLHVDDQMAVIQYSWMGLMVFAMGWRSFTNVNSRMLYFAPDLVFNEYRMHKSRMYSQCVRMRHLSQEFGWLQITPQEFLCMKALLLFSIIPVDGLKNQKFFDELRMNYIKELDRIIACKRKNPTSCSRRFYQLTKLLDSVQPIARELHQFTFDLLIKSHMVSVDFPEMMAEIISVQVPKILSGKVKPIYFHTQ
Description: Inhibition of androgen receptor in human LNCaP cells assessed as inhibition of AR transcription activity by dual-luciferase reporter assays.
Conditions: not given
The assay is classed as cell-based. Background: A reporter such as luciferase makes a cellular process visible.
`Cc1c(O)c(O)c(C=O)c(COCc2ccccc2F)c1-c1ccc(F)cc1`: the half-inhibitory concentration (IC50) is > 5 µM.
The same measure, in the same setting: then `Cc1c(O)c(O)c(C=O)c(COCc2ccc(C(F)(F)F)cc2)c1-c1ccccc1`, with 3.32 µM; and `CC(C)c1cc(COCc2ccccc2)c(C=O)c(O)c1O`, with > 5 µM; and `Cc1c(O)c(O)c(C=O)c(COCc2ccccc2)c1-c1ccccc1`, with > 5 µM.
Turning to `Cc1ccc(F)cc1-c1c(C)c(O)c(O)c(C=O)c1COCc1ccccc1`, the IC50 was > 5 µM.
As for `Cc1c(O)c(O)c(C=O)c(COCc2cccc(F)c2)c1-c1ccc(F)cc1`, the IC50 was found to be 2.58 µM.
As for `COc1ccc(COCc2cc(C)c(O)c(O)c2C=O)cc1`, the half-maximal inhibitory concentration (IC50) is > 5 µM.
Consider `Cc1c(O)c(O)c(C=O)c(COCc2cccc(F)c2)c1-c1cccc(F)c1`, for which the IC50 was determined as 2.89 µM.
For `Cc1c(O)c(O)c(C=O)c(COCc2ccccc2)c1-c1ccc(C(F)(F)F)cc1`, the concentration for half-maximal inhibition (IC50) came to 1.23 µM.
The same measure, in the same setting: then `Cc1c(O)c(O)c(C=O)c(COCc2ccccc2)c1CO[Si](C)(C)C`, with > 5 µM; and `Cc1c(O)c(O)c(C=O)c(COCc2ccccc2)c1-c1ccc([N+](=O)[O-])cc1`, with 3.74 µM; and `Cc1cc(COCc2ccccc2)c(C=O)c(O)c1O`, with > 5 µM.
On the same count and under the same terms, for `Cc1ccc(COCc2c(C=O)c(O)c(O)c(C)c2-c2ccccc2)cc1` the value was > 5 µM; for `Cc1c(O)c(O)c(C=O)c(COCc2ccccc2)c1-c1ccc(C(C)(C)C)cc1`, 3.51 µM.
For `Cc1c(O)c(O)c(C=O)c(COCc2cccc3ccccc23)c1-c1ccccc1`, the IC50 was > 5 µM.
Consider `Cc1c(O)c(O)c(C=O)c(COCc2ccccc2C(F)(F)F)c1-c1cccc(F)c1`, for which the 50% inhibitory concentration (IC50) was > 5 µM.
Take `Cc1c(O)c(O)c(C=O)c(COCc2ccccc2)c1-c1ccccc1OC(F)(F)F`: the IC50 is > 5 µM.
As to `Cc1c(O)c(O)c(C=O)c(COCc2cccc(F)c2)c1-c1ccc(C(F)(F)F)cc1`, the half-inhibitory concentration (IC50) came out at 2.09 µM.
For `Cc1c(O)c(O)c(C=O)c(COCc2ccccc2)c1-c1ccc(-c2ccccc2)cc1`, the IC50 was > 5 µM.
On the same count and under the same terms, for `Cc1c(O)c(O)c(C=O)c(COCc2ccccc2)c1-c1ccc(Cl)cc1` the value was 4.9 µM.
On the same count and under the same terms, then `Cc1c(O)c(O)c(C=O)c(COCc2cccc(Cl)c2Cl)c1-c1ccccc1`, with 2.81 µM; and `Cc1c(O)c(O)c(C=O)c(COCc2ccc(F)cc2)c1-c1ccc(F)cc1`, with 2.41 µM.
Take `Cc1c(O)c(O)c(C=O)c(COCc2ccc(F)cc2)c1-c1cccc(F)c1`: the IC50 is 2.09 µM.
As to `Cc1c(O)c(O)c(C=O)c(CSCCC(C)C)c1-c1ccccc1`, the IC50 was > 5 µM.
As to `Cc1c(O)c(O)c(C=O)c2c1C1(CC2)c2ccccc2-c2ccccc21`, the IC50 is > 5 µM.
On to `Cc1c(O)c(O)c(C=O)c(COCc2ccccc2)c1-c1ccc(OC(F)(F)F)cc1`, for which the IC50 was 4.49 µM.
For the compound `COc1ccc(-c2c(C)c(O)c(O)c(C=O)c2COCc2ccccc2)cc1`, the IC50 was > 5 µM.
On to `CC(C)=CCC/C(C)=C/COCc1cc(C)c(O)c(O)c1C=O`, for which the IC50 was > 5 µM.
As for `Cc1c(O)c(O)c(C=O)c2c1[C@@H](c1ccc(C(=O)O[C@H]3CC[C@@]4(C)C(=CC[C@H]5[C@@H]6CC[C@H]([C@H](C)CCCC(C)C)[C@@]6(C)CC[C@@H]54)C3)cc1)CC2`, the IC50 is > 5 µM.
Consider `Cc1c(O)c(O)c(C=O)c(COCc2ccccc2)c1-c1ccc(Br)cc1`, for which the IC50 turned out to be 3.47 µM.
Turning to `Cc1c(O)c(O)c(C=O)c(COCc2ccccc2)c1-c1ccccc1Br`, the IC50 is > 5 µM.
Turning to `Cc1c(O)c(O)c(C=O)c(COCc2ccccc2F)c1-c1ccccc1`, the IC50 was > 5 µM.
For the compound `C=CCc1c(C)c(O)c(O)c(C=O)c1COCc1ccc(OC)cc1`, the IC50 is > 5 µM.
Regarding `Cc1c(O)c(O)c(C=O)c(COCc2ccccc2)c1-c1ccc(Cl)cc1C(F)(F)F`, the IC50 is > 5 µM.
Take `Cc1c(O)c(O)c(C=O)c(COCc2ccccc2)c1-c1ccc(C(F)(F)F)cc1Cl`: the half-maximal inhibitory concentration (IC50) was determined as 3.25 µM.
With `Cc1c(O)c(O)c(C=O)c(COCc2ccccc2)c1-c1ccccc1C#N`, the IC50 was > 5 µM.
Consider `Cc1c(O)c(O)c(C=O)c(COCc2ccccc2C(F)(F)F)c1-c1ccccc1`, for which the IC50 was 2.54 µM.
Consider `Cc1ccccc1-c1c(C)c(O)c(O)c(C=O)c1COCc1ccccc1`, for which the IC50 was > 5 µM.
On the same count and under the same terms, then `Cc1c(O)c(O)c(C=O)c(COCc2ccccc2)c1-c1ccc(F)cc1Cl`, with > 5 µM.
In the case of `COc1cccc(COCc2c(C=O)c(O)c(O)c(C)c2-c2ccccc2)c1`, the IC50 is > 5 µM.
Regarding `Cc1c(O)c(O)c(C=O)c(COCc2ccccc2)c1-c1cccs1`, the IC50 was > 5 µM.
Turning to `Cc1cc(CO[C@H]2CC[C@@]3(C)C(=CC[C@@H]4[C@@H]3CC[C@]3(C)C(=O)CC[C@@H]43)C2)c(C=O)c(O)c1O`, the IC50 was > 5 µM.
Regarding `Cc1c(O)c(O)c(C=O)c(COCc2ccc(F)cc2)c1-c1ccc(C(F)(F)F)cc1`, the IC50 was determined as 2.14 µM.
Consider `Cc1c(C)c(COCc2ccccc2)c(C=O)c(O)c1O`, for which the IC50 is > 5 µM.
Turning to `Cc1c(O)c(O)c(C=O)c(CO[C@H]2CC[C@@]3(C)C(=CC[C@@H]4[C@@H]3CC[C@]3(C)C(=O)CC[C@@H]43)C2)c1-c1ccccc1`, the IC50 was 3.22 µM.
For the compound `Cc1c(O)c(O)c(C=O)c(COCc2ccccc2)c1-c1cc(C(F)(F)F)cc(C(F)(F)F)c1`, the IC50 was determined as 4.39 µM.
As for `Cc1c(O)c(O)c(C=O)c(COCc2ccccc2)c1-c1ccc(Br)c(F)c1`, the IC50 came out at 2.19 µM.
On to `C=CCc1c(C)c(O)c(O)c(C=O)c1COCc1ccccc1`, for which the IC50 is > 5 µM.
Take `Cc1c(O)c(O)c(C=O)c(COCc2ccc(F)cc2)c1-c1ccccc1`: the IC50 is 2.38 µM.
The same measure, in the same setting: for `Cc1cc(C)cc(-c2c(C)c(O)c(O)c(C=O)c2COCc2ccccc2)c1` the value was > 5 µM; for `CCc1c(O)c(O)c(C=O)c(COCc2ccccc2)c1-c1ccccc1`, > 5 µM.
For the compound `Cc1c(O)c(O)c(C=O)c(COCc2ccccc2)c1-c1ccc(F)cc1`, the IC50 is > 5 µM.
For the compound `COc1ccccc1-c1c(C)c(O)c(O)c(C=O)c1COCc1ccccc1`, the IC50 is > 5 µM.
On to `Cc1c(O)c(O)c(C=O)c(COCc2ccccc2)c1-c1ccc(C(F)(F)F)cc1Br`, for which the IC50 turned out to be 4.08 µM.
For the compound `C#CCOCc1c(C=O)c(O)c(O)c(C)c1-c1ccccc1`, the IC50 was > 5 µM.
Take `Cc1c(O)c(O)c(C=O)c(COCc2ccccc2)c1-c1ccccc1C(F)(F)F`: the concentration for half-maximal inhibition (IC50) was > 5 µM.
Regarding `Cc1cccc(COCc2c(C=O)c(O)c(O)c(C)c2-c2ccccc2)c1`, the IC50 came out at 4.53 µM.
On the same count and under the same terms, for `Cc1c(O)c(O)c(C=O)c(COCc2ccccc2)c1-c1ccccc1Cl` the value was > 5 µM.
For `CCc1cc(COCc2ccccc2)c(C=O)c(O)c1O`, the 50% inhibitory concentration (IC50) is > 5 µM.
In the case of `Cc1c(O)c(O)c(C=O)c(COCc2ccccc2)c1-c1ccc(F)cc1F`, the IC50 was 2.3 µM.
As to `COC(=O)c1ccc(-c2c(C)c(O)c(O)c(C=O)c2COCc2ccccc2)cc1`, the IC50 turned out to be 4.23 µM.
On the same count and under the same terms, then `COc1ccccc1COCc1c(C=O)c(O)c(O)c(C)c1-c1ccccc1`, with > 5 µM; and `Cc1c(O)c(O)c(C=O)c(COCc2cccc(F)c2)c1-c1ccccc1`, with 4.05 µM; and `Cc1cccc(-c2c(C)c(O)c(O)c(C=O)c2COCc2ccccc2)c1`, with > 5 µM.
Same read-out and setting: for `Cc1c(O)c(O)c(C=O)c(COCc2ccccc2F)c1-c1ccc(C(F)(F)F)cc1` the value was 2.52 µM; for `Cc1c(O)c(O)c(C=O)c(COCc2ccccc2F)c1-c1cccc(F)c1`, > 5 µM.
On to `Cc1c(O)c(O)c(C=O)c2c1C(C#Cc1ccc(Br)cc1)CC2` (stereo not drawn), for which the concentration for half-maximal inhibition (IC50) was > 5 µM.
As for `Cc1c(O)c(O)c(C=O)c(COCc2ccccc2)c1-c1cc(F)ccc1F`, the IC50 was > 5 µM.
Still for that read-out and setting: then `Cc1c(O)c(O)c(C=O)c(COCc2ccccc2)c1-c1cccc2ccccc12`, with > 5 µM.
Regarding `Cc1c(O)c(O)c(C=O)c(COCc2ccccc2)c1-c1ccc(Br)cc1F`, the IC50 worked out at 3.39 µM.
Regarding `Cc1c(O)c(O)c(C=O)c(COCc2ccccc2)c1-c1ccc(Cl)cc1Br`, the half-maximal inhibitory concentration (IC50) was > 5 µM.
For the compound `Cc1c(O)c(O)c(C=O)c(COCc2ccccc2)c1-c1ccc(F)c(F)c1`, the IC50 was determined as 2.05 µM.
The same measure, in the same setting: then `Cc1c(O)c(O)c(C=O)c(COCc2ccc(OC(F)(F)F)cc2)c1-c1ccccc1`, with 2.72 µM; and `Cc1c(O)c(O)c(C=O)c(COCc2ccccc2)c1-c1cccc(Br)c1F`, with > 5 µM; and `C=C(C)Cc1c(C)c(O)c(O)c(C=O)c1COCc1ccccc1`, with > 5 µM.
On to `Cc1c(O)c(O)c(C=O)c(COCc2cccc(C(F)(F)F)c2)c1-c1ccccc1`, for which the IC50 was determined as 3.05 µM.
Take `Cc1ccc(-c2c(C)c(O)c(O)c(C=O)c2COCc2ccccc2)cc1`: the IC50 was 3.27 µM.

The next assay has as its system CWR22R. Description: Antiproliferative activity against human 22Rv1 cells assessed as cell growth inhibition incubated for 72 hrs by MTT assay. Format: functional, cell-based. The note with it: 22Rv1, 72 h. (In general: Formazan colour is commonly taken as a measure of viable cells.)
Consider `CNC(=O)c1ccc(N2C(=S)N(c3ccc(C#N)c(C(F)(F)F)c3)C(=O)C2(C)C)cc1F` [ENZALUTAMIDE], for which the 50% inhibitory concentration (IC50) worked out at 46.3 µM.

As usually defined, the IC50 is the concentration that inhibits the measured activity by half.
